Experimental data published in patent US20220290200A1, “GENETICALLY MODIFIED HOST CELLS PRODUCING GLYCOSYLATED CANNABINOIDS” (OCTARINE BIO IVS, priority 2019, published 2022).

Assays:
[1] = Chemical stability under acidic, alkaline, oxidative and heat stress (HPLC); details: for % of substrate remaining in solution: HPLC, relative to control at 30° C. pH 7.0; for percent remaining after 24 h exposure relative to a control at ambient conditions: alkaline conditions (NaOH, final pH 12.5); for release of CBD aglycone (stability of the glucoside bond): any condition (acidic, alkaline, oxidative, heat)
Description: Alternatively, chemical stability of cannabinoid glycosides was determined under alkaline, acidic, oxidative and heat stress as follows. 25 mM stock solutions of cannabinoids and cannabinoid glycosides were prepared in 100% methanol. 15 μL is mixed with 5 μL of 400 mM HCl solution (final pH=1.1), 400 mM NaOH solution (Final pH=12.5), 12% H2O2 solution (final concentration 3%), or H2O pH 7.0. […] A control under ambient conditions was also prepared where 15 μL of the cannabinoid or cannabinoid glycoside was added to 5 μL H2O pH 7.0 and incubated at 30° C. After 24 h samples were placed on ice and 60 μL of ice-cold 100% methanol is added to each sample. Samples were centrifuged and transferred to HPLC vials for analysis. The remaining concentration of cannabinoid or cannabinoid glycoside was quantified by comparing to authentic analytical standards. Determining the presence of degradation products were determined by comparing with authentic analytical standards.
CBD, CBD-1′-O-β-D-glucoside (OB1), and CBD-1′-O-β-D-glucosyl-3′-O-β-D-glucoside (OB6) were exposed to oxidative, alkaline, acidic and heat conditions as described above, and their degradation quantified by HPLC analysis by measuring the amount of compound remaining in solution after 24 h exposure to a given condition and expressed as percent (%) remaining after 24 h exposure relative to a control at ambient conditions. Also measured was the accumulation of the known CBD degradation product THC, expressed as percent accumulated after 24 h exposure.

[2] = Hepatic microsomal stability; details: for t1/2 / CLint: human liver microsomes 0.5 mg/mL, 1 μM compound, NADPH and UDP-glucuronic acid
Description: Hepatic microsomal stability of cannabinoid glycosides were determined by incubating 2 μM of molecule with HepaRG™ human liver microsomes (Sigma) supplemented with NADPH at 37° C. Samples were taken at 0, 5, 15, 30, 45, and 60 minute intervals and analyzed as described above. Verapamil (rapid clearance) and Diazepam (low clearance) were used as references.
Alternatively, hepatic microsomal stability of cannabinoid glycosides was determined as follows. HepaRG™ pooled human liver microsomes (Sigma) (final protein concentration=0.5 mg/mL) were mixed with alamethicin (25 μg/mg), 0.1 M phosphate buffer (pH=7.4) and the test compound (1 μM final in DMSO) and incubated at 37° C. prior to addition of NADPH (final concentration 1 mM) and UDP-glucuronic acid (final concentration 1 mM) to initiate the reaction. The compound was incubated for 0, 5, 15, 30, and 45 minutes and the reaction terminated by adding acetonitrile in a 1:3 ratio (v/v). Reactions were centrifuged at 3000 rpm for 20 min at 4° C. to precipitate the protein. Following protein precipitation, internal standards were added to the sample supernatants and analyzed by LC-MS to measure the concentration of compound remaining at each time point, quantification was achieved by comparison to authentic analytical standards.
In vitro hepatic microsomal stability was performed for CBD, CBD-1′-O-β-D-glucoside (OB1), and CBD-1′-O-β-D-glucosyl-3′-O-β-D-glucoside (OB6) as described above and the intrinsic clearance (CLint) and half-life (t1/2) of each compound was determined.

Caco-2 cells = assay: Caco-2 bi-directional permeability assay; assay type: in vitro ADME, human; details: for efflux ratio compared to CBD / permeability coefficient (Papp) A to B and B to A compared to unmodified CBD: Caco-2, 10 μM; for efflux ratio compared to CBD / permeability coefficient (Papp) A to B and B to A compared to unmodified CBD / Mean recovery (%), Direction A→B / Mean Papp, Direction A→B / Mean recovery (%), Direction B→A / Mean Papp, Direction B→A: 120 min; for % recovery compared to CBD: Caco-2, both compartments; for Mean recovery (%), Direction A→B / Mean Papp, Direction A→B: apical to basolateral; for Mean Papp, Direction A→B / Mean Papp, Direction B→A: mean and standard deviation of duplicates; for Mean recovery (%), Direction B→A / Mean Papp, Direction B→A: basolateral to apical; for Efflux ratio: ratio of B−A and A−B permeabilities
Description: Intestinal permeability of cannabinoids and glycosylated cannabinoids was determined by measuring bi-directional transport across Caco-2 cell membranes. Caco-2 cells are used as an in vitro model of the human intestinal epithelium and permit assessment of the intestinal permeability of potential drugs. The test compound is added to either the apical or basolateral side of a confluent monolayer of Caco-2 cells and permeability is measured by monitoring the appearance of the test compound on the opposite side of the monolayer using LC-MS/QTOF. When performing a bi-directional assay, the efflux ratio (ER) is calculated from the ratio of B−A and A−B permeabilities. Caco-2 cells obtained from the ATCC are used between passage numbers 40-60. Cells are seeded onto Millipore Multiscreen Transwell plates at 1×10^5 cells/cm2. The cells are cultured in DMEM and media is changed every two or three days. On day 20 the permeability study is performed. Cell culture and assay incubations are carried out at 37° C. in an atmosphere of 5% CO2 with a relative humidity of 95%. On the day of the assay, the monolayers are prepared by rinsing both apical and basolateral surfaces twice with Hanks Balanced Salt Solution (HBSS) at the desired pH warmed to 37° C. Cells are then incubated with HBSS at the desired pH in both apical and basolateral compartments for 40 min to stabilize physiological parameters. 10 mM solutions of cannabinoids and cannabinoid glycosides are prepared in DMSO then diluted with assay buffer to give a final test compound concentration of 10 μM (final DMSO concentration of 1% v/v). The fluorescent integrity marker lucifer yellow is also included in the solution.
Analytical standards are prepared from test compound DMSO dilutions and transferred to buffer, maintaining a 1% v/v DMSO concentration. For assessment of A−B permeability, HBSS is removed from the apical compartment and replaced with test compound solution. The apical compartment insert is then placed into a companion plate containing fresh buffer (containing 1% v/v DMSO). For assessment of B−A permeability, HBSS is removed from the companion plate and replaced with test compound solution. Fresh buffer (containing 1% v/v DMSO) is added to the apical compartment insert, which is then placed into the companion plate. At 120 min the apical compartment inserts and the companion plates are separated and apical and basolateral samples diluted for analysis. Test compound permeability is assessed in duplicate. Compounds of known permeability characteristics are run as controls on each assay plate. Test and control compounds are quantified by LC-MS/QTOF as described above. The starting concentration (C0) is determined from the solution and the experimental recovery calculated from C0 and both apical and basolateral compartment concentrations. The integrity of the monolayer throughout the experiment is checked by monitoring lucifer yellow permeation using fluorometric analysis. The permeability coefficient (Papp) for each compound is calculated from the following equation: Papp=(dQ/dt)/(C0×A) Where dQ/dt is the rate of permeation of the drug across the cells, C0 is the donor compartment concentration at time zero and A is the area of the cell monolayer. C0 is obtained from analysis of the dosing solution. The efflux ratio (ER) is calculated from mean Papp values from A−B and B−A data. This is derived from: ER=Papp(B−A)/Papp(A−B). The % recovery is calculated from the following equation; % recovery=(Total compound in donor and receiver compartment at end of experiment)/(initial compound present)×100.
CBD glycosides were produced using glycosyl transferases and purified as described above. […] Low recovery of compound in a Caco-2 permeability assay can indicate problems with poor solubility, binding of the compound to the plate, metabolism by the Caco-2 cells or accumulation of the compound in the cell monolayer.

**Q.** What does the source list for `C=C(C)[C@@H]1CCC(C)=C[C@H]1c1c(O)cc(CCCCC)cc1O` [CBD, cannabidiol, reference compound]?
**A.** % of substrate remaining in solution ([1]; Acidic (pH 1.1), 24 h): 63.90%; % of substrate remaining in solution ([1]; Alkaline (pH 12.5), 24 h): 2.26%; % of substrate remaining in solution ([1]; Heat (60° c.), 24 h): 72.76%; % of substrate remaining in solution ([1]; Oxidative (H2O2 3%), 24 h): 70.56%; accumulation of degradation product THC ([1]; acidic and alkaline conditions, 24 h): degrades to THC; percent remaining after 24 h exposure relative to a control at ambient conditions ([1]; 30° C.): 2.26%; stability under stress conditions ([1]; all conditions tested (acidic, alkaline, oxidative, heat), 24 h): unstable under all conditions tested; t1/2 [2]: 3.77 min; microsomal CLint at 1 μM ([2]; human, microsomes, pH 7.4): 368 ± 0.684 µL/min/mg

**Q.** Which “% of substrate remaining in solution” value ([1]; Acidic (pH 1.1), 24 h) does the source give for `C=C(C)[C@@H]1CCC(C)=C[C@H]1c1c(O[C@@H]2O[C@H](CO)[C@@H](O)[C@H](O)[C@H]2O)cc(CCCCC)cc1O[C@@H]1O[C@H](CO)[C@@H](O)[C@H](O)[C@H]1O` [OB6, CBD-1′-O-β-D-glucosyl-3′-O-β-D-glucoside] here?
**A.** The value was 91.90%.

**Q.** What about the “% of substrate remaining in solution” value ([1]; Alkaline (pH 12.5), 24 h) of the same molecule?
**A.** Its value is 100.62%.

**Q.** And the “% of substrate remaining in solution” value ([1]; Heat (60° c.), 24 h)?
**A.** The value was 80.79%.

**Q.** And the “% of substrate remaining in solution” value ([1]; Oxidative (H2O2 3%), 24 h)?
**A.** Its value is 74.98%.

**Q.** And the “percent remaining after 24 h exposure relative to a control at ambient conditions” value ([1]; 30° C.)?
**A.** The value was 100%.

**Q.** And the “release of CBD aglycone (stability of the glucoside bond)” value ([1]; 24 h)?
**A.** The value was “no CBD aglycone was detected”.

**Q.** And the “accumulation of THC or THC-glucoside” value ([1]; any of the conditions (acidic, alkaline, oxidative, heat), 24 h)?
**A.** The value was “no THC or THC-glucoside was detected”.

**Q.** And the “decrease in intrinsic clearance versus CBD” value ([2]; human liver microsomes)?
**A.** Its value is 50 fold.

**Q.** What about the “increase in half-life versus CBD” value ([2]; human liver microsomes) of the same molecule?
**A.** Its value is 50 fold.

**Q.** And the CLint [2]?
**A.** Its CLint is 7.39 ± 1.32 μL/min/mg protein.

**Q.** What about the t1/2 [2] of the same molecule?
**A.** Its t1/2 is 188 min.

**Q.** What about the “efflux ratio compared to CBD” value (Caco-2 cells) of the same molecule?
**A.** The value was “higher than both CBD and OB1”.

**Q.** And the “permeability coefficient (Papp) A to B and B to A compared to unmodified CBD” value (Caco-2 cells)?
**A.** Its value is “permeability coefficients were lower”.

**Q.** And the “% recovery compared to CBD” value (Caco-2 cells)?
**A.** Its value is “successively higher rates of recovery”.

**Q.** What about the “Mean recovery (%), Direction A→B” value (Caco-2 cells) of the same molecule?
**A.** The value was 91.9%.

**Q.** And the “Mean Papp, Direction A→B” value (Caco-2 cells)?
**A.** Its value is 0.10 ± 0.05 10^−6 cms^−1.

**Q.** What about the “Mean recovery (%), Direction B→A” value (Caco-2 cells) of the same molecule?
**A.** Its value is 87.8%.

**Q.** What about the “Mean Papp, Direction B→A” value (Caco-2 cells) of the same molecule?
**A.** The value was 0.44 ± 0.17 10^−6 cms^−1.

**Q.** What about the Efflux ratio (Caco-2 cells) of the same molecule?
**A.** Its Efflux ratio is 4.31.

**Q.** Which “% accumulation of THC-1′-O-β-D-glucoside (OB20)” value ([1]; Acidic (pH 1.1), 24 h) does the source give for `C=C(C)[C@@H]1CCC(C)=C[C@H]1c1c(O)cc(CCCCC)cc1O[C@@H]1O[C@H](CO)[C@@H](O)[C@H](O)[C@H]1O` [OB1, CBD-1′-O-β-D-glucoside] here?
**A.** The value was 1.61%.

**Q.** And the “% of substrate remaining in solution” value ([1]; Acidic (pH 1.1), 24 h)?
**A.** Its value is 80.02%.

**Q.** What about the “% of substrate remaining in solution” value ([1]; Alkaline (pH 12.5), 24 h) of the same molecule?
**A.** Its value is 100.27%.

**Q.** What about the “% of substrate remaining in solution” value ([1]; Heat (60° c.), 24 h) of the same molecule?
**A.** The value was 84.35%.

**Q.** And the “% of substrate remaining in solution” value ([1]; Oxidative (H2O2 3%), 24 h)?
**A.** Its value is 92.98%.

**Q.** And the “accumulation of degradation product THC-1′-O-β-D-glucoside (OB20)” value ([1]; acidic conditions (HCl, final pH 1.1), 30° C., 24 h)?
**A.** The value was “a small amount of THC-1′-O-β-D-glucoside (OB20) was detected”.

**Q.** What about the “percent remaining after 24 h exposure relative to a control at ambient conditions” value ([1]; 30° C.) of the same molecule?
**A.** Its value is 100%.

**Q.** What about the “release of CBD aglycone (stability of the glucoside bond)” value ([1]; 24 h) of the same molecule?
**A.** Its value is “no CBD aglycone was detected”.

**Q.** And the CLint [2]?
**A.** The CLint was 1110 ± 0.312 μL/min/mg protein.

**Q.** And the t1/2 [2]?
**A.** The t1/2 was 1.24 min.

**Q.** And the “efflux ratio compared to CBD” value (Caco-2 cells)?
**A.** The value was “higher efflux ratio”.

**Q.** What about the “permeability coefficient (Papp) A to B and B to A compared to unmodified CBD” value (Caco-2 cells) of the same molecule?
**A.** Its value is “significantly higher permeability coefficients in both directions”.

**Q.** And the “% recovery compared to CBD” value (Caco-2 cells)?
**A.** Its value is “successively higher rates of recovery”.

**Q.** And the “Mean recovery (%), Direction A→B” value (Caco-2 cells)?
**A.** The value was 69.8%.

**Q.** And the “Mean Papp, Direction A→B” value (Caco-2 cells)?
**A.** The value was 10.40 ± 0.31 10^−6 cms^−1.

**Q.** And the “Mean recovery (%), Direction B→A” value (Caco-2 cells)?
**A.** Its value is 79.7%.

**Q.** What about the “Mean Papp, Direction B→A” value (Caco-2 cells) of the same molecule?
**A.** Its value is 35.70 ± 0.34 10^−6 cms^−1.

**Q.** And the Efflux ratio (Caco-2 cells)?
**A.** The Efflux ratio was 3.43.
